Data on 28 molecules can be found in patent US20220380338A1, “CYCLOALKYL 3-OXOPIPERAZINE CARBOXAMIDES AND CYCLOHETEROALKYL 3-OXOPIPERAZINE CARBOXAMIDES AS NAV1.8 INHIBITORS” (Merck Sharp & Dohme LLC, priority 2021, published 2022).

Each structure is given as a SMILES string.

In this test the target is T1, human NaV1.8 (Homo sapiens, UniProt Q9Y5Y9).
T1 construct: expressed in transfected cells
T1 sequence (Q9Y5Y9 whole entry): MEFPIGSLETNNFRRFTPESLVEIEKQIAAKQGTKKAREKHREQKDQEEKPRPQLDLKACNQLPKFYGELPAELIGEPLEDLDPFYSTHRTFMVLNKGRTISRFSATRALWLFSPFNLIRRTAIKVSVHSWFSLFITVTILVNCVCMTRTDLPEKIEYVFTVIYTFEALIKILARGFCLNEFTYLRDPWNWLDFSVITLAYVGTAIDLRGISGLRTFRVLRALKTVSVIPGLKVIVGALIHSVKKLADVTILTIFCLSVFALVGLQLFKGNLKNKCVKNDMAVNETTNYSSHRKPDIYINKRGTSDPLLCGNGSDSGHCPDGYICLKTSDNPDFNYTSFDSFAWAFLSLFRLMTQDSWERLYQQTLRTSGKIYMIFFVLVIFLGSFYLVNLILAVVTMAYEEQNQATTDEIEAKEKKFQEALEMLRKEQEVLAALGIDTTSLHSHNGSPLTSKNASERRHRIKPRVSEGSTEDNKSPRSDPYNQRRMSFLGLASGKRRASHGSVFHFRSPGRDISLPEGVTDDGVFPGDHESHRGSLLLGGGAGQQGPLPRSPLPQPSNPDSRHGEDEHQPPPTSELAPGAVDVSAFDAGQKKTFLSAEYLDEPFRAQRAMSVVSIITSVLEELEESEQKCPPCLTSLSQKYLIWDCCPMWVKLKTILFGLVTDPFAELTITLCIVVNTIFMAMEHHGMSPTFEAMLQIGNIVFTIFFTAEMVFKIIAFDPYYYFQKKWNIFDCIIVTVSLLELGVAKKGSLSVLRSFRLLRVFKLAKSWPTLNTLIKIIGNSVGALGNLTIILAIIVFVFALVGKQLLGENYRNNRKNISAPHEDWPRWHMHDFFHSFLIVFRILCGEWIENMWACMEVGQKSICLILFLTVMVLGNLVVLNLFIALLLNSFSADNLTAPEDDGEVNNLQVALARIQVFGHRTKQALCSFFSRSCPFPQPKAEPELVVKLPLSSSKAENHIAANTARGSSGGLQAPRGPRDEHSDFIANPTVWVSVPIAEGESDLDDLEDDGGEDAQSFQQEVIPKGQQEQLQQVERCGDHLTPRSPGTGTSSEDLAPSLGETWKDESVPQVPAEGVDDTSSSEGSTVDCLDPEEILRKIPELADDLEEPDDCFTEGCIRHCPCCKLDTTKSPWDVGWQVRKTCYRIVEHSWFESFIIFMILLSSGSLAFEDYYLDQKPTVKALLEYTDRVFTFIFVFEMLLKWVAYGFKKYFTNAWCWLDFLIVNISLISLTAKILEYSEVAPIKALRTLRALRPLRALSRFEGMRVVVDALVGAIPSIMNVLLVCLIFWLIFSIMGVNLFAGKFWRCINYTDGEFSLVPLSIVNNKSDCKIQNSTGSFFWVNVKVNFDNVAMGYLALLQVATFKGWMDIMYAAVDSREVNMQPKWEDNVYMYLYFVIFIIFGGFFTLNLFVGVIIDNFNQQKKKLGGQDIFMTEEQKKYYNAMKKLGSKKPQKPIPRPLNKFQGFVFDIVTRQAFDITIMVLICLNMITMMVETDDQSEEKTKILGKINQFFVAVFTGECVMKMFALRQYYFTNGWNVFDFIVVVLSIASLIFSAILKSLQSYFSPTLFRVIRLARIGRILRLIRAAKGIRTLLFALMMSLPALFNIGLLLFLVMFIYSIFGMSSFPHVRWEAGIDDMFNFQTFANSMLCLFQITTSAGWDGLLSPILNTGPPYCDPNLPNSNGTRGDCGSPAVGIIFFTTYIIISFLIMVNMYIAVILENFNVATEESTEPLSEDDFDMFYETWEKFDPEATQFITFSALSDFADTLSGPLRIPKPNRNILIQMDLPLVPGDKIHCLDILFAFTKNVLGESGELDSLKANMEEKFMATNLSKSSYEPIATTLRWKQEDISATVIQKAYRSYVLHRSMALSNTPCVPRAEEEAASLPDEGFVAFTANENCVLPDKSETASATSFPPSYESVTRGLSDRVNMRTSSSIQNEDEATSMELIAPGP
The test can be described thus: Nav1.8 Qube® Assay (automated 384-well patch-clamp, inhibition of sodium current). It is filed as cell-based. Conditions: human NaV1.8 channels stably expressed in HEK 293 cells, room temperature. The method, then: Compounds were tested on human NaV1.8 and NaV1.5 channels stably expressed in human embryo kidney (HEK) 293 cells. Sodium current measurements on Qube® were conducted as follows: automated 384-well patch-clamp assays on the Qube® platform (Sophion Biosciences) were used to measure the inhibition of sodium flow through human NaV1.8 and NaV1.5 channels. Whole-cell voltage-clamp recordings were performed in QChips® (Sophion Biosciences) at room temperature. NaV1.8 current measurements on Qube® were obtained as follows: NaV1.8 currents were elicited with a 10 second 1 Hertz (Hz) pulse train from a holding potential of −90 millivolts (mV), delivered to the cells once per minute in the control condition (DMSO only) and after compound addition. The 1 hertz pulse train stimulation consisted of ten test pulses to 10 millivolt (mV) for 20 milliseconds (ms), each of which was followed by a 980 millisecond repolarization to −67 millivolts. At the end of the 10 second pulse train stimulation, a 5 second hyperpolarization step to −100 millivolt (mV) was used to recover NaV1.8 from fast inactivation. The peak currents elicited by the 1st and 10th test pulses were used to determine IC50 values for resting inhibition and inactivated state inhibition. NaV1.5 current measurements on Qube® were obtained as follows: NaV1.5 currents were elicited with a 20 second 3 Hertz pulse train in the control condition (DMSO only) and after compound addition. The pulse train consisted of sixty 20 millisecond test pulses to 0 millivolt from a holding potential of −80 millivolt (mV). The average peak currents elicited by the last 3 test pulses were used to determine IC50 values for NaV1.5 inhibition.
The following buffers were used for the Qube® recordings: External buffer for NaV1.8 Qube® recording: 150 NaCl, 2 CaCl2, 5 KCl, 1 Mg Cl2, 10 HEPES, 12 Dextrose; External buffer for Qube® NaV1.5 recording: 120 N-Methyl-D-Glucamine, 40 NaCl, 1 KCl, 2.7 CaCl2, 5 HEPES, 0.5 MgCl2; and Internal buffer for Qube® recording: 120 CsF, 30 CsCl, 10 EGTA, 5 HEPES, 5 NaF, 2 MgCl2.
For all Qube® experiments offline analysis was used to determine percent inhibition as a function of drug concentration. IC50 values were determined by fitting to the Hill equation.
Background: The patch-clamp technique gives a direct electrical read-out from membranes.
The term IC50 denotes the point on the concentration scale where inhibition reaches its midpoint. Lower therefore signals greater potency in that assay. Turning to `C[C@@H]1C(=O)NCCN1C(=O)NC(c1ccc(Cl)cc1)C1CCN(CC(F)(F)F)CC1` (single isomer, unassigned) [Example 16B, (2R)-N-((S or R)-(4-chlorophenyl)(1-(2,2,2-trifluoroethyl)piperidin-4-yl)methyl)-2-methyl-3-oxopiperazine-1-carboxamide], the 50% inhibitory concentration (IC50) came to 936 nM. The molecule `O=C1CN(C(=O)NC(c2ccc(F)c(Cl)c2)C2CCN(CC(F)(F)F)CC2)CCN1` (single isomer, unassigned) [Example 17A, N-((R or S)-(3-chloro-4-flurophenyl)(1-(2,2,2-trifluoroethyl)piperidin-4-yl)methyl)-3-oxopiperazine-1-carboxamide] showed an IC50 of 1630 nM.

On to `O=C1CN(C(=O)NC(c2ccc(F)c(Cl)c2)C2CCN(CC(F)(F)F)CC2)CCN1` (single isomer, unassigned) [Example 17B, N-((S or R)-(3-chloro-4-fluorophenyl)(1-(2,2,2-trifluoroethyl)piperidin-4-yl)methyl)-3-oxopiperazine-1-carboxamide], for which half-maximal inhibition (IC50) required 136 nM. As for `CC(N1CCC(C(NC(=O)N2CCNC(=O)[C@H]2C)c2ccc(F)c(Cl)c2)CC1)C(F)(F)F` (single isomer, unassigned) [Example 18A], the figure is 4.1 nM. For the molecule `CC(N1CCC(C(NC(=O)N2CCNC(=O)[C@H]2C)c2ccc(F)c(Cl)c2)CC1)C(F)(F)F` (single isomer, unassigned) [Example 18B], the concentration for half-maximal inhibition (IC50) is 6.87 nM. As for `CC(N1CCC(C(NC(=O)N2CCNC(=O)[C@H]2C)c2ccc(F)c(Cl)c2)CC1)C(F)(F)F` (single isomer, unassigned) [Example 18C], the figure is 91.6 nM. In the case of `CC(N1CCC(C(NC(=O)N2CCNC(=O)[C@H]2C)c2ccc(F)c(Cl)c2)CC1)C(F)(F)F` (single isomer, unassigned) [Example 18D], inhibition was half-maximal at 83.5 nM (IC50).

`C[C@@H]1C(=O)NCCN1C(=O)NC(c1ccc(F)c(Cl)c1)C1CCC2(CC1)CC2(F)F` (single isomer, unassigned) [Example 19A] registered an IC50 of 5.75 nM. To `C[C@@H]1C(=O)NCCN1C(=O)NC(c1ccc(F)c(Cl)c1)C1CCC2(CC1)CC2(F)F` (single isomer, unassigned) [Example 19B] belongs 3.23 nM; to `C[C@@H]1C(=O)NCCN1C(=O)NC(c1ccc(F)c(Cl)c1)C1CCC2(CC1)CC2(F)F` (single isomer, unassigned) [Example 19C], 15.7 nM; to `C[C@@H]1C(=O)NCCN1C(=O)NC(c1ccc(F)c(Cl)c1)C1CCC2(CC1)CC2(F)F` (single isomer, unassigned) [Example 19D], 10 nM. Take `C[C@@H]1C(=O)NCCN1C(=O)NC(c1ccc(F)c(Cl)c1F)C1CC(C(F)(F)F)C1` (single isomer, unassigned) [Example 20A]: the 50% inhibitory concentration (IC50) amounted to 1.37 nM. As for `C[C@@H]1C(=O)NCCN1C(=O)NC(c1ccc(F)c(Cl)c1F)C1CC(C(F)(F)F)C1` (single isomer, unassigned) [Example 20C], the figure is 9.02 nM. Consider `C[C@@H]1C(=O)NCCN1C(=O)NC(c1ccc(F)c(Cl)c1F)C1CC(C(F)(F)F)C1` (single isomer, unassigned) [Example 20D], for which the IC50 amounted to 116 nM. Molecule `C[C@@H]1C(=O)NCCN1C(=O)NC(c1ccc(F)c(Cl)c1F)C1CC(C2CC2)C1` (single isomer, unassigned) [Example 21A, (2R)-N-((R or S)-(3-chloro-2,4-difluoro-phenyl)(trans or cis-3-cyclopropylcyclobutyl)methyl)-2-methyl-3-oxopiperazine-1-carboxamide] gave an IC50 of 1.08 nM. For `C[C@@H]1C(=O)NCCN1C(=O)NC(c1ccc(F)c(Cl)c1F)C1CC(C2CC2)C1` (single isomer, unassigned) [Example 21B, (2R)-N-((R or S)-(3-chloro-2,4-difluoro-phenyl)(cis or trans-3-cyclopropylcyclobutyl)methyl)-2-methyl-3-oxopiperazine-1-carboxamide], the half-maximal inhibitory concentration (IC50) came to 2.87 nM. The molecule `C[C@@H]1C(=O)NCCN1C(=O)NC(c1ccc(F)c(Cl)c1F)C1CC(C2CC2)C1` (single isomer, unassigned) [Example 21C, (2R)-N-((S or R)-(3-chloro-2,4-difluoro-phenyl)(trans or cis-3-cyclopropyl-cyclobutyl)-methyl)-2-methyl-3-oxopiperazine-1-carboxamide] registered a half-inhibitory concentration (IC50) of 59.7 nM. For `C[C@@H]1C(=O)NCCN1C(=O)NC(c1ccc(F)c(Cl)c1F)C1CC(C2CC2)C1` (single isomer, unassigned) [Example 21D, (2R)-N-((S or R)-(3-chloro-2,4-difluoro-phenyl)(cis or trans-3-cyclopropyl-cyclobutyl)-methyl)-2-methyl-3-oxopiperazine-1-carboxamide], half-maximal inhibition (IC50) required 128 nM. For `C[C@@H]1C(=O)NCCN1C(=O)NC(c1ccc(F)c(Cl)c1F)C1CC2(C1)CC2(F)F` (single isomer, unassigned) [Example 22A, (2R)-N-((R or S)-(3-chloro-2,4-difluoro-phenyl)(trans or cis-1,1-difluoro-spiro[2,3]-hexan-5-yl)methyl)-2-methyl-3-oxopiperazine-1-carboxamide], the IC50 turned out to be 2.9 nM.

In the case of `C[C@@H]1C(=O)NCCN1C(=O)NC(c1ccc(F)c(Cl)c1F)C1CC2(C1)CC2(F)F` (single isomer, unassigned) [Example 22B, (2R)-N-((R or S)-(3-chloro-2,4-difluoro-phenyl)(cis or trans-1,1-difluoro-spiro[2,3]-hexan-5-yl)methyl)-2-methyl-3-oxopiperazine-1-carboxamide], the IC50 came to 5.89 nM. In turn, `C[C@@H]1C(=O)NCCN1C(=O)NC(c1ccc(F)c(Cl)c1F)C1CC2(C1)CC2(F)F` (single isomer, unassigned) [Example 22C, (2R)-N-((S or R)-(3-chloro-2,4-difluoro-phenyl)(trans or cis-1,1-difluoro-spiro[2.3]-hexan-5-yl)methyl)-2-methyl-3-oxopiperazine-1-carboxamide] gave an IC50 of 84.5 nM. `C[C@@H]1C(=O)NCCN1C(=O)NC(c1ccc(F)c(Cl)c1F)C1CC2(C1)CC2(F)F` (single isomer, unassigned) [Example 22D, (2R)-N-((So or R)-(3-chloro-2,4-difluoro-phenyl)(cis or trans-1,1-difluoro-spiro[2.3]-hexan-5-yl)methyl)-2-methyl-3-oxopiperazine-1-carboxamide] came in with an IC50 of 85.2 nM. On to `C[C@@H]1C(=O)NCCN1C(=O)NC(c1ccc(F)c(Cl)c1F)C1CC2(C1)CC(F)(F)C2` (single isomer, unassigned) [Example 23, (2R)-N-((R or S)-(3-chloro-2,4-difluoro-phenyl)(6,6-difluoro-spiro[3.3]heptan-2-yl)methyl)-2-methyl-3-oxopiperazine-1-carboxamide], for which the IC50 stood at 1.16 nM. `C[C@@H]1C(=O)NCCN1C(=O)NC(c1ccc(F)c(Cl)c1F)C1CC(F)(F)C1` (single isomer, unassigned) [Example 24A, (2R)-N-((R or S)-(3-chloro-2,4-difluoro-phenyl)(3,3-difluoro-cyclobutyl)methyl)-2-methyl-3-oxopiperazine-1-carboxamide] returned a half-inhibitory concentration (IC50) of 2630 nM. For `C[C@@H]1C(=O)NCCN1C(=O)NC(c1ccc(F)c(Cl)c1F)C1CC(F)(F)C1` (single isomer, unassigned) [Example 24B, (2R)-N-((S or R)-(3-chloro-2,4-difluoro-phenyl)(3,3-difluoro-cyclobutyl)methyl)-2-methyl-3-oxopiperazine-1-carboxamide], the IC50 was found to be 29.1 nM.

With `C=C1CC(C(NC(=O)N2CCNC(=O)[C@H]2C)c2ccc(F)c(Cl)c2F)C1` (single isomer, unassigned) [Example 25A, (2R)-N-((R or S)-(3-chloro-2,4-difluoro-phenyl)(3-methylene-cyclobutyl)methyl)-2-methyl-3-oxopiperazine-1-carboxamide], the 50% inhibitory concentration (IC50) amounted to 10.4 nM.

On to `C=C1CC(C(NC(=O)N2CCNC(=O)[C@H]2C)c2ccc(F)c(Cl)c2F)C1` (single isomer, unassigned) [Example 25B, (2R)-N-((S or R)-(3-chloro-2,4-difluoro-phenyl)(3-methylene-scyclobutyl)methyl)-2-methyl-3-oxopiperazine-1-carboxamide], for which half-maximal inhibition (IC50) required 652 nM. Regarding `O=C1NCCN(C(=O)N[C@H](c2ccc(F)c(Cl)c2F)[C@H]2C[C@H](C(F)(F)F)C2)C1C1CC1` (single isomer, unassigned) [Example 27A, (R or S)—N—((S)-(3-chloro-2,4-difluorophenyl)(trans-3-(trifluoromethyl)cyclobutyl)methyl)-2-cyclopropyl-3-oxopiperazine-1-carboxamide], it took 0.8 nM to reach half-maximal inhibition (IC50).
